# According to US5268282A, “Cyclic FR-900520 microbial biotransformation agent” (Merck & Co., Inc., priority 1992, dated 1993):
# “Also recorded” adds a separate entry of the source.
# Tests used:
# [1] = Solubility (physical characteristics); assay type: physicochemical; settings: methanol
# [2] = tested on: splenic T-cells (mouse T lymphocytes); experiment: T-cell proliferation assay (ionomycin + PMA induced T-cell stimulation, tritiated thymidine uptake); assay type: cell-based, mouse (C57Bl/6)
# Protocol: The principle of this assay is to measure the proliferation of mouse T lymphocytes stimulated with the combination of ionomycin plus PMA.
# Cells were pelleted by centrifugation at 1500 rpm for 8 minutes. Contaminating red cells were removed by treating the pellet with ammonium chloride lysing buffer (GIBCO) for 2 minutes at 4° C. Cold medium was added and cells were again centrifuged at 1500 rpm for 8 minutes. T lymphocytes were then isolated by separation of the cell suspension on nylon wool columns as follows: Nylon wool columns were prepared by packing approximately 4 grams of washed and dried nylon wool into 20 ml plastic syringes. The columns were sterilized by autoclaving at 250° F. for 30 minutes. Nylon wool columns were wetted with warm (37° C.) culture medium and rinsed with the same medium. Washed spleen cells resuspended in warm medium were slowly applied to the nylon wool. The columns were then incubated in an upright position at 37° C. for 1 hour. Non-adherent T lymphocytes were eluted from the columns with warm culture medium and the cell suspensions were spun as above.
# The cell suspension was immediately distributed into 96 well flat-bottom microculture plates (Costar) at 200 μl/well. […] Radioactivity of filter discs corresponding to individual wells was measured by standard liquid scintillation counting methods (Betacounter). Mean counts per minute of replicate wells were calculated and the results expressed as percent inhibition of tritiated thymidine uptake (proliferation) as follows: [formula]
# [3] = immunosuppressant; EPO Publication No. 0184162; cited from earlier work
compound,measurement,setting,value
CC[C@@H]1C=C2COC1(O)C[C@H](O)[C@@H](C)[C@@H](/C(C)=C/[C@@H]1CC[C@@H](O)[C@H](OC)C1)OC(=O)[C@@H]1CCCCN1C(=O)C(=O)[C@]1(O)O[C@H]([C@@H](OC)C[C@@H](C)C2)[C@@H](OC)C[C@H]1C [Compound I],Solubility,[1],Solubility in methanol
same,Inhibition of T-cell proliferation upon addition of IL2,[2]; 50 units/ml recombinant IL2 added at the initiation of culture,reversed
same,IC50,"[2]; Mus musculus, T-cell, based on a series of 5 additional experiments, read-out: IC50, generally in the range of",1.57 to 5.2 ng/mL
same,immunosuppressant activity (inhibition of T-cell activation / T-cell proliferation assay),[2]; result in words,positive inhibition of T-cell activation; also recorded: positive immunosuppressive activity
"C=CCC1C=C(C)CC(C)CC(OC)C2OC(O)(C(=O)C(=O)N3CCCCC3C(=O)OC(C(C)=CC3CCC(O)C(OC)C3)C(C)C(O)CC1=O)C(C)CC2OC (stereo not drawn) [FR 900506, reference compound]",inhibition at 0.01 µg/mL,"[2]; Mus musculus, T-cell, read-out: inhibition by the standard",99%
C=CC[C@@H]1/C=C(\C)C[C@H](C)C[C@H](OC)[C@H]2O[C@@](O)(C(=O)C(=O)N3CCCC[C@H]3C(=O)O[C@H](/C(C)=C/[C@@H]3CC[C@@H](O)[C@H](OC)C3)[C@H](C)[C@@H](O)CC1=O)[C@H](C)C[C@@H]2OC [FK-506],times more effective than cyclosporin (reputed),[3],100 times
